Assay results published in the METLIN SMRT retention time set (Domingo-Almenara et al. 2019).

Experiment: gradient 5% acetonitrile 3 min, to 50% in 2 min, to 85% in 15 min, held 3 min, 100 µL/min
Details: column: Zorbax Extend-C18 2.1 x 50 mm; eluents: water / acetonitrile, 0.1% formic acid
In short: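 Mixtures of ~100 pure standards were chromatographed on a Zorbax Extend-C18 column (2.1 × 50 mm, 1.8 μm) at 100 μL/min using water and acetonitrile, each with 0.1% formic acid. Detection used a quadrupole time-of-flight mass spectrometer in positive and negative ionization mode, and data collection spanned 3 months. Retention time was obtained from adduct peaks picked computationally and each checked manually.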

| RP-LC retention time | SMILES |
| --- | --- |
| 1050 s | COc1cccc(Cn2cnc3c(-c4ccc(F)cc4)csc3c2=O)c1 |
| 616 s | O=C(O)c1nnn(-c2cccc(F)c2)c1-c1ccncc1 |
| 1170 s | O=C(NCc1ccccc1F)c1c(O)c2cccnc2n(-c2cccc(F)c2)c1=O |
| 952 s | COc1ccc(-c2noc(C3CCCN3C(=O)Nc3ccc(OC)c(OC)c3)n2)cc1 (configuration not stated) |
| 763 s | CCC(=O)N1CCc2cc(N3CC(C(=O)Nc4cccc(F)c4)CC3=O)ccc21 (configuration not stated) |
| 607 s | Cc1nccn1Cc1nc(-c2cccc(F)c2)no1 |
| 656 s | Cc1ccc(CNC(=O)Cn2c(=O)c(=O)n(C)c3ncccc32)o1 |
| 805 s | O=C(C1CC1)N1CCc2sc(S(=O)(=O)NCc3cccc(F)c3)cc2C1 |
| 685 s | Cc1cccc(NC(=O)N2CCC(c3cc(N)on3)CC2)c1C |
| 1070 s | Cc1ccc(Cc2nc(-c3ccc4oc(C)nc4c3)no2)cc1 |
| 945 s | Cc1cc(OCC(=O)Nc2ccc(Cl)cc2F)nc(N2CCN(c3ccccc3)CC2)n1 |
| 752 s | COCCn1cc(CCNC(=O)Nc2ccccc2Cl)c2cccnc21 |
| 777 s | Cc1cc(C)n2nc(CN(C(=O)c3cccs3)c3ccccc3)nc2n1 |
| 706 s | Cc1cccc(NC(=O)Cn2cnc3c(c2=O)CCCC3)c1 |
| 656 s | Cc1cccc(-c2nc3ccccn3c2NC(=O)NCc2ccccc2)c1 |
| 575 s | Cn1cccc1C(CNS(=O)(=O)c1ccc(F)c(Cl)c1)N1CCOCC1 (configuration not stated) |
| 557 s | CN(C)C[C@@H]1CN(c2ncccn2)C[C@H]1NC(=O)c1ccc2ncccc2c1 |
| 1050 s | CCc1nc(-c2csc(S(=O)(=O)N3CCC(C(=O)N4CCc5ccccc54)CC3)c2)no1 |

Further lines, the molecule ahead of its results:

| SMILES | RP-LC retention time |
| --- | --- |
| COc1ccc(NC(=O)Cn2nc(C(=O)N3CCCC3)c3ccccc32)c(OC)c1 | 822 s |
| O=C(C1CCC1)N1CCc2sc(S(=O)(=O)Nc3ccc(Cl)cc3)cc2C1 | 929 s |
| O=C(Nc1ccccc1Cl)C(=O)c1cn(CC(=O)N2CCOCC2)c2ccccc12 | 1040 s |
| CCC(C)NC(=O)c1c2c(cn(-c3ccc(F)cc3)c1=O)C(=O)CC(C)(C)C2 (configuration not stated) | 920 s |
| CCN(Cc1ccccc1)C(=O)Cn1nc2c(N3CCC(C)CC3)nccn2c1=O | 861 s |
| CCN1CCn2cc(S(=O)(=O)N3CCN(c4ccccc4)CC3)cc2C1=O | 684 s |
| O=C(Nc1ccc2c(c1)OCCO2)c1ccnc(N2CCNC(c3ccccc3)C2)c1 (configuration not stated) | 638 s |
| Cc1cc(=O)n(CC(=O)Nc2ccc(C(F)(F)F)cc2)c(N2CCOCC2)n1 | 759 s |
| CCCCC(=O)N(Cc1ccc(-c2ccccc2-c2nn[nH]n2)cc1)[C@H](C(=O)O)C(C)C | 865 s |
| COc1ccc2c(c1)C1(CCN(S(=O)(=O)c3ccc(C)cc3)C1)C(=O)N2 (configuration not stated) | 843 s |
| COc1ccc2c(c1)C1(CCN(C(=O)c3ccccc3F)C1)C(=O)N2C (configuration not stated) | 752 s |
| CC(C)CNC(=O)C1CCCN(c2cnc3nccnc3c2)C1 (configuration not stated) | 658 s |
| CCCN(CCC)[C@@H]1CCc2c(OC)cccc2[C@@H]1C | 802 s |
| COc1cc(C(=O)Nc2nc(-c3ccc4c(c3)NC(=O)CO4)cs2)cc(OC)c1OC | 824 s |
| CCc1ccccc1S(=O)(=O)N1CCC(n2cnnc2CC)CC1 | 595 s |
| CCOC(=O)c1ccc(NC(=O)C2CCN(S(=O)(=O)c3ccc4[nH]c(=O)ccc4c3)CC2)cc1 | 783 s |
| Cc1cc(Cl)ccc1NC(=O)Cn1cnc2nc3c(cc2c1=O)CCCC3 | 770 s |
| CC1CCN(c2ccc(N3CCN(S(=O)(=O)c4cc(F)ccc4F)CC3)nn2)CC1 | 606 s |
| CCN1CCCn2cc(S(=O)(=O)NCc3ccccc3)cc2C1=O | 711 s |
